# According to patent EP4711377A1, “STEROID COMPOUND, PREPARATION METHOD THEREFOR, AND USE THEREOF” (Shujing Biopharma Co., Ltd, priority 2023, dated 2024):
# What was measured:
# C57 mice [1] = assay: forced swimming test in mice; format: in vivo; settings: 3 mg/kg p.o.; for immobility time during minutes 2-6, Mean value: one hour after the administration
# Source text: (§1) The core manifestations of depression are despair, helplessness, and anhedonia. The forced swimming test is commonly used to evaluate despair-like behavior. In this test, the animal is placed in an unpleasant and inescapable environment (a water tank). […] Anhedonia means a loss of interest in things that were once pleasurable; in rodents, it is typically manifested as a reduced preference for sweet foods (sucrose). Therefore, the in vivo efficacy of the compounds of the examples of the present disclosure in mice can be evaluated by forced swimming and sucrose preference tests.
# (§2) Female/male C57 mice, purchased from SPF (Suzhou) Biotechnology Co., Ltd.
# (§3) Note: ①Vehicle: 5% of DMSO + 5% of HS-15 + 90% of 20% hydroxypropyl-β-cyclodextrin (10 mL/kg, p.o.).
# Forced swimming: Animals were divided into a control group and various test drug administration dose groups, which were subjected to vehicle and test drug administration, respectively. One hour after the administration, the animals were placed in a 25 °C plexiglass cylinder with a water depth of 20 cm. The swimming status of the animals in the water was recorded by video, and the immobility time of the animals (characterized by floating in the water and stopping struggling) during minutes 2-6 was recorded and analyzed.
# (§4) Experimental data were expressed as χ ± SEM. One-way analysis of variance was employed, and pairwise comparisons were performed using Dunnett's multiple comparisons tests. The floating immobility time, swimming time, and struggling time were recorded.
# C57 mice [2] = assay: sucrose preference test in mice; format: in vivo; settings: 3 mg/kg p.o.; for Sucrose preference degree, Mean value: mice with chronic stress, 2 h free drinking
# Source text: as §1, §2, §3
# Sugar preference: D1: a 1% sucrose solution was provided on both sides; D2/3: drinking water was provided on one side, while a 1% sucrose solution was provided on the other side; D4: water and food were deprived; D5: sucrose preference degree was tested. During the test, the mice with chronic stress were subjected to administration according to the experimental groups. After the administration, pre-weighed sucrose solution and drinking water were provided on […]. The animals were allowed free access to drinking for 2 h in a dark environment, and during this period, the positions of the sucrose solution and drinking water were switched at the 1-hour mark.
# as §4
# Sucrose preference degree (%) = sucrose solution consumption/(sucrose solution consumption + purified water consumption) × 100%.
# [3] = acute toxicity experiment and side effect observation in mice; format: in vivo, ICR mice; settings: both sexes, ICR, mouse, in vivo; single oral intragastric administration at 2.5, 5, 10, 20 mg/kg; 14 days observation; read-out: maximum tolerated dose (MTD)
# Experimental: (§5) This experiment aimed to evaluate the acute toxic manifestations of the test compounds following single oral intragastric administration in ICR mice, observe the recovery status of the ICR mice within 14 days post-administration, and determine the maximum tolerated dose of the test compounds.
# (§6) 65 male and 65 female ICR mice were purchased from Shanghai Jihui Laboratory Animal Care Co., Ltd. After 4-5 days of acclimatization of the experimental animals, the formal experiment was carried out. The mice were housed at 5 mice/cage in a 12/12-hour light/dark cycle at a room temperature of 23±2 °C, with free access to food and water.
# (§7) Based on the Vehicle in section 2.4, a certain weight of the test compound was weighed, 5% of the total volume of a DMSO liquid was first added, and the mixture was vortexed. After the drug was completely dissolved, 5% of the total volume of an HS-15 liquid was added, and the mixture was well mixed and vortexed. Finally, a 20% hydroxypropyl-β-cyclodextrin solution was added according to the remaining volume proportion, forming a 2 mg/mL clear and homogeneous solution. The solution was then proportionally diluted in a gradient to concentrations of 1 mg/mL, 0.5 mg/mL, and 0.25 mg/mL (the administration volume was 10 mL/kg).
# (§8) • a. About 12-18 h before testing, animals were weighed and then grouped, and fasted overnight (water was accessible). • b. The next day, the mice were reweighed according to groups. Ten mice per group (5 males and 5 females/dose) were subjected to oral intragastric administration of the test compound or Vehicle. The day of administration was designated as Day 1. • c. […] Observation period for Day 2 to Day 14: 9:00 to 12:00.
# (§9) • (1) The clinical symptoms and mortality in each group of ICR mice post-administration were recorded to determine the maximum tolerated dose. • (2) The symptom alleviation and recovery status in each group of ICR mice post-administration were recorded.
# ICR mice = assay: as above; format: in vivo; settings: for clinical symptoms / death: 4-8 h post-administration; for cage-side observations / main adverse reactions / tolerability: single oral administration, 2.5 to 20 mg/kg
# Experimental: as §5, §6, §7, §8, §9
# [4] = all dose groups (2.5/5/10/20 mg/kg)
smiles,measurement,setting,value
"C[C@@H]1C[C@H](C(=O)Cn2ncnn2)[C@@]2(C)CC[C@H]3[C@@H](CC[C@@H]4C[C@](C)(O)[C@@H](C)C[C@@H]43)[C@H]12 [Example 9, 1-((2S,3S,5R,8R,9R,10S,13S,14S,15R,17S)-3-Hydroxy-2,3,13,15-tetramethylhexadecahydro-1H-cyclopenta[a]phenanthren-17-yl)-2-(2H-tetrazol-2-yl)ethan-1-one]","immobility time during minutes 2-6, Mean value",C57 mice [1],54.68 s
same,effect on immobility time compared to the blank group,C57 mice [1]; conclusion in words,significantly reduce the immobility time
same,"Sucrose preference degree, Mean value",C57 mice [2],88.37%
same,effect on sucrose preference degree compared to the blank group,C57 mice [2]; conclusion in words,significantly improve the sucrose preference degree
same,MTD at 14 days,[3],20 mg/kg
same,clinical symptoms,ICR mice; 20 mpk group,gait instability
same,death,ICR mice; [4],no death occurred
same,clinical symptoms,ICR mice; all lower dose groups (below 20 mpk),returned to normal
same,cage-side observations / main adverse reactions,ICR mice,prostration and mild loss of righting reflex observed in some of the mice at high doses
same,tolerability,ICR mice,all animals could tolerate it
"C[C@H]1C[C@H]2[C@H](CC[C@@H]3[C@@H]2CC[C@]2(C)[C@@H](C(=O)Cn4ncnn4)CC[C@@H]32)C[C@]1(C)O [Example 20, 1-((2S,3S,5R,8R,9R,10S,13S,14S,17S)-3-Hydroxy-2,3,13-trimethylhexadecahydro-1H-cyclopenta[a]phenanthren-17-yl)-2-(2H-tetrazol-2-yl)ethan-1-one]",MTD at 14 days,[3],20 mg/kg
same,death,ICR mice; [4],no death occurred
same,cage-side observations / main adverse reactions,ICR mice,ataxia that aggravated with the increase of dose
same,tolerability,ICR mice,all animals could tolerate it
"C[C@@]1(O)CC[C@H]2[C@H](CC[C@@H]3[C@@H]2CC[C@]2(C)[C@@H](C(=O)Cn4cc(C#N)cn4)CC[C@@H]32)C1 [Sage-217, reference compound]","immobility time during minutes 2-6, Mean value",C57 mice [1],56.38 s
same,"Sucrose preference degree, Mean value",C57 mice [2],84.31%
same,MTD at 14 days,[3],10 mg/kg
same,mortality,"ICR mice; 20 mg/kg group, single oral intragastric administration",mortality was observed in both male and female mice
same,clinical symptoms,ICR mice; 20 mpk group,prostration symptoms
same,death,"ICR mice; 20 mpk group, 5 males and 5 females",1 male and 2 female mice died
same,cage-side observations / main adverse reactions,ICR mice,"ataxia that aggravated with the increase of dose, as well as severe loss of righting reflex observed at high doses"
